Values after ≈ are worked out from the molar mass of the structure shown.

This test concerns Staphylococcus aureus. Description: Antibacterial activity against Staphylococcus aureus ATCC 25923. The format is functional. To be noted: for MIC: Staphylococcus aureus, ATCC 25923.

Regarding `CC(=O)NC[C@H]1CN(c2ccc(N3CCN(C(=O)/C=C/c4c[nH]c5ccccc45)CC3)c(F)c2)C(=O)O1`, the “Log (1/C)” value was 2.4028 and it took 2 µg/mL (≈ 3.96 µM) to inhibit growth (MIC).

For `C/C(S)=N/C[C@H]1CN(c2ccc(N3CCN(C(=O)/C=C/c4ccncc4)CC3)c(F)c2)C(=O)O1`, the “Log (1/C)” value was found to be 2.9855 and the MIC is 0.5 µg/mL (≈ 1.03 µM).

As for `CC(=O)NC[C@H]1CN(c2ccc(N3CCN(C(=O)/C=C/c4ccc(OC(=O)C(C)(C)C)cc4)CC3)c(F)c2)C(=O)O1`, the “Log (1/C)” value is given as 1.5492 and the MIC was greater than 16 µg/mL.

With `C/C(S)=N/C[C@H]1CN(c2ccc(N3CCN(C(=O)/C=C/c4ccccc4)CC3)c(F)c2)C(=O)O1`, the “Log (1/C)” value came to 3.2857 and the MIC was 0.25 µg/mL (≈ 0.518 µM).

As for `CC(=O)NC[C@H]1CN(c2ccc(N3CCN(C(=O)/C=C/c4ccc(OS(C)(=O)=O)cc4)CC3)c(F)c2)C(=O)O1`, the “Log (1/C)” value amounted to 1.8456 and it took 8 µg/mL (≈ 14.3 µM) to inhibit growth (MIC).

As for `NC(=S)NC[C@H]1CN(c2ccc(N3CCN(C(=O)/C=C/c4cccs4)CC3)c(F)c2)C(=O)O1`, the “Log (1/C)” value was 2.9909 and the lowest concentration to inhibit growth (MIC) was 0.5 µg/mL (≈ 1.02 µM).

`CC(=O)NC[C@H]1CN(c2ccc(N3CCN(C(=O)/C=C/c4ccoc4)CC3)c(F)c2)C(=O)O1`: the “Log (1/C)” value turned out to be 2.3584 and the MIC is 2 µg/mL (≈ 4.38 µM).

As for `CC(=O)NC[C@H]1CN(c2ccc(N3CCN(C(=O)/C=C/c4ccc(COC(C)=O)o4)CC3)c(F)c2)C(=O)O1`, the “Log (1/C)” value is given as 1.82 and the MIC is 8 µg/mL (≈ 15.1 µM).

For `C/C(S)=N/C[C@H]1CN(c2ccc(N3CCN(C(=O)/C=C/c4ccc(O)cc4)CC3)c(F)c2)C(=O)O1`, the “log(1/C)” value came to 2.3967 and inhibition of growth (MIC) required 2 µg/mL (≈ 4.01 µM).

With `CC(=O)NC[C@H]1CN(c2ccc(N3CCN(C(=O)/C=C/c4cccs4)CC3)c(F)c2)C(=O)O1`, the “Log (1/C)” value is on record as 2.6745 and the MIC worked out at 1 µg/mL (≈ 2.12 µM).

As to `C/C(S)=N/C[C@H]1CN(c2ccc(N3CCN(C(=O)/C=C/c4cccs4)CC3)c(F)c2)C(=O)O1`, the “Log (1/C)” value was determined as 3.2911 and the MIC was found to be 0.25 µg/mL (≈ 0.512 µM).

Consider `CC(=O)NC[C@H]1CN(c2ccc(N3CCN(C(=O)/C=C/c4ccco4)CC3)c(F)c2)C(=O)O1`, for which the “Log (1/C)” value is given as 2.3584 and the minimal inhibitory concentration (MIC) stood at 2 µg/mL (≈ 4.38 µM).

Regarding `CC(=O)NC[C@H]1CN(c2ccc(N3CCN(C(=O)/C=C/c4cccc(O)c4)CC3)c(F)c2)C(=O)O1`, the “Log (1/C)” value is 2.3825 and it took 2 µg/mL (≈ 4.14 µM) to inhibit growth (MIC).

Turning to `C/C(S)=N/C[C@H]1CN(c2ccc(N3CCN(C(=O)/C=C/c4ccc([N+](=O)[O-])o4)CC3)c(F)c2)C(=O)O1`, the “Log (1/C)” value is recorded as 3.316 and the minimum inhibitory concentration (MIC) was 0.25 µg/mL (≈ 0.483 µM).

Regarding `CC(=O)NC[C@H]1CN(c2ccc(N3CCN(C(=O)/C=C/c4ccc(F)c(F)c4)CC3)c(F)c2)C(=O)O1`, the “Log (1/C)” value amounted to 1.4971 and the MIC was greater than 16 µg/mL.

As for `NC(=S)NC[C@H]1CN(c2ccc(N3CCN(C(=O)/C=C/c4c[nH]c5ccccc45)CC3)c(F)c2)C(=O)O1`, the “Log (1/C)” value was 3.3318 and the MIC came to 0.25 µg/mL (≈ 0.478 µM).

With `CC(=O)NC[C@H]1CN(c2ccc(N3CCN(C(=O)/C=C/c4ccccc4)CC3)c(F)c2)C(=O)O1`, the “Log (1/C)” value was found to be 2.0669 and the minimal inhibitory concentration (MIC) amounted to 4 µg/mL (≈ 8.57 µM).

As for `NC(=S)NC[C@H]1CN(c2ccc(N3CCN(C(=O)/C=C/c4ccc(O)cc4)CC3)c(F)c2)C(=O)O1`, the “Log (1/C)” value turned out to be 2.6986 and the MIC is 1 µg/mL (≈ 2 µM).

In the case of `CC(=O)NC[C@H]1CN(c2ccc(N3CCN(C(=O)/C=C/c4ccncc4)CC3)c(F)c2)C(=O)O1`, the “Log (1/C)” value was found to be 2.3688 and the lowest concentration to inhibit growth (MIC) was 2 µg/mL (≈ 4.28 µM).

Turning to `NC(=S)NC[C@H]1CN(c2ccc(N3CCN(C(=O)/C=C/c4ccco4)CC3)c(F)c2)C(=O)O1`, the “Log (1/C)” value turned out to be 2.6754 and the MIC was 1 µg/mL (≈ 2.11 µM).

In the case of `CC(=O)NC[C@H]1CN(c2ccc(N3CCN(C(=O)/C=C/c4ccc(C=O)o4)CC3)c(F)c2)C(=O)O1`, the “Log (1/C)” value came out at 2.0833 and the MIC stood at 4 µg/mL (≈ 8.26 µM).

With `CC(=O)NC[C@H]1CN(c2ccc(N3CCN(C(=O)/C=C/c4ccc(O)c(O)c4)CC3)c(F)c2)C(=O)O1`, the “Log (1/C)” value is reported as 1.4936 and the lowest concentration to inhibit growth (MIC) was 16 µg/mL (≈ 32.1 µM).

As for `CC(C)(C)C(=O)Oc1ccc(/C=C/C(=O)N2CCN(c3ccc(N4C[C@H](CNC(N)=S)OC4=O)cc3F)CC2)cc1`, the “Log (1/C)” value amounted to 1.5621 and the MIC is greater than 16 µg/mL.

`CC(=O)NC[C@H]1CN(c2ccc(N3CCN(C(=O)CO)CC3)c(F)c2)C(=O)O1` [EPEREZOLID]: the “Log (1/C)” value amounted to 1.9939 and the MIC came to 4 µg/mL (≈ 10.1 µM).

On to `NC(=S)NC[C@H]1CN(c2ccc(N3CCN(C(=O)/C=C/c4ccncc4)CC3)c(F)c2)C(=O)O1`, for which the “Log (1/C)” value came out at 2.0833 and it took 4 µg/mL (≈ 8.25 µM) to inhibit growth (MIC).

As for `CC(=O)NC[C@H]1CN(c2ccc(N3CCN(C(=O)/C=C/c4ccc[nH]4)CC3)c(F)c2)C(=O)O1`, the “Log (1/C)” value is 2.3575 and the MIC amounted to 2 µg/mL (≈ 4.39 µM).

Consider `NC(=S)NC[C@H]1CN(c2ccc(N3CCN(C(=O)/C=C/c4ccccc4)CC3)c(F)c2)C(=O)O1`, for which the “Log (1/C)” value amounted to 2.6845 and inhibition of growth (MIC) required 1 µg/mL (≈ 2.07 µM).

With `C/C(S)=N/C[C@H]1CN(c2ccc(N3CCN(C(=O)/C=C/c4ccco4)CC3)c(F)c2)C(=O)O1`, the “Log (1/C)” value is 2.9755 and the MIC amounted to 0.5 µg/mL (≈ 1.06 µM).

Take `CC(=O)NC[C@H]1CN(c2ccc(N3CCN(C(=O)/C=C/c4ccc([N+](=O)[O-])s4)CC3)c(F)c2)C(=O)O1`: the “Log (1/C)” value is listed as 3.316 and the MIC stood at 0.25 µg/mL (≈ 0.483 µM).

For `CC(=O)NC[C@H]1CN(c2ccc(N3CCN(C/C=C/c4ccc([N+](=O)[O-])o4)CC3)c(F)c2)C(=O)O1`, the “Log (1/C)” value turned out to be 2.387 and the MIC turned out to be 2 µg/mL (≈ 4.1 µM).

`CC(=O)NC[C@H]1CN(c2ccc(N3CCN(C(=O)/C=C/c4ccc(C(=O)O)o4)CC3)c(F)c2)C(=O)O1`: the “Log (1/C)” value is recorded as 1.4953 and the MIC is greater than 16 µg/mL.

As to `CC(=O)NC[C@H]1CN(c2ccc(N3CCN(C(=O)/C=C/c4ccc(CO)o4)CC3)c(F)c2)C(=O)O1`, the “Log (1/C)” value was 2.0851 and the minimum inhibitory concentration (MIC) turned out to be 4 µg/mL (≈ 8.22 µM).

For `CC(=O)NC[C@H]1CN(c2ccc(N3CCN(C(=O)/C=C/c4ccc([N+](=O)[O-])o4)CC3)c(F)c2)C(=O)O1`, the “Log (1/C)” value turned out to be 3.3024 and the minimum inhibitory concentration (MIC) worked out at 0.25 µg/mL (≈ 0.499 µM).

With `CC(=O)NC[C@H]1CN(c2ccc(N3CCN(C(=O)/C=C/c4ccsc4)CC3)c(F)c2)C(=O)O1`, the “Log (1/C)” value came to 2.3735 and the MIC turned out to be 2 µg/mL (≈ 4.23 µM).

As to `CC(=O)NC[C@H]1CN(c2ccc(N3CCN(C(=O)/C=C/c4ccc(C)o4)CC3)c(F)c2)C(=O)O1`, the “Log (1/C)” value worked out at 2.0706 and the MIC amounted to 4 µg/mL (≈ 8.5 µM).

In the case of `CC(=O)NC[C@H]1CN(c2ccc(N3CCN(C(=O)/C=C/c4ccc(O)cc4)CC3)c(F)c2)C(=O)O1`, the “Log (1/C)” value is 2.3825 and the MIC came out at 2 µg/mL (≈ 4.14 µM).

With `CC(=O)NC[C@H]1CN(c2ccc(N3CCN(C/C=C/c4ccco4)CC3)c(F)c2)C(=O)O1`, the “Log (1/C)” value is listed as 2.0439 and it took 4 µg/mL (≈ 9.04 µM) to inhibit growth (MIC).

For the molecule `CC(=O)NC[C@H]1CN(c2ccc(N3CCN(C(=O)/C=C/c4cccnc4)CC3)c(F)c2)C(=O)O1`, the “Log (1/C)” value worked out at 2.6698 and the MIC worked out at 1 µg/mL (≈ 2.14 µM).

Consider `C/C(S)=N/C[C@H]1CN(c2ccc(N3CCN(C(=O)/C=C/c4c[nH]c5ccccc45)CC3)c(F)c2)C(=O)O1`, for which the “Log (1/C)” value came to 3.0184 and inhibition of growth (MIC) required 0.5 µg/mL (≈ 0.959 µM).

Broadly, the MIC is the lowest concentration that inhibits growth of the organism.

The record behind these values is ChEMBL document CHEMBL1138031, “3D QSAR studies of N-4-arylacryloylpiperazin-1-yl-phenyl-oxazolidinones: a novel class of antibacterial agents” (2006).
